Reference: ChEMBL document CHEMBL3867472, “Discovery of benzofuran propanoic acid GPR120 agonists: From uHTS hit to mechanism-based pharmacodynamic effects” (Bioorg Med Chem Lett, 2016)

Biological target: T1, Free fatty acid receptor 4 (Homo sapiens, UniProt Q5NUL3)
T1 sequence (Q5NUL3 whole entry): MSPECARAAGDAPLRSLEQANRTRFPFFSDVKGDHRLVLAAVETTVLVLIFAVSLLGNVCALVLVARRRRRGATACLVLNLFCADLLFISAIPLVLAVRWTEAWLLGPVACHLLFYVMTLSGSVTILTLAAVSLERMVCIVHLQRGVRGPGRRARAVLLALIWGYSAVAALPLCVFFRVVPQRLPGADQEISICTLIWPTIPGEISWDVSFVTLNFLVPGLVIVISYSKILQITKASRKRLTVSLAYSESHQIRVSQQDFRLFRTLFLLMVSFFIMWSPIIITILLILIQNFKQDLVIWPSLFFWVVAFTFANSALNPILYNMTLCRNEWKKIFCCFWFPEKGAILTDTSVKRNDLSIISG
Experiment: Agonist activity at human GPR120 expressed in CHOK1 cells measured after 60 mins by IP1-HTRF assay
Assay type: functional, cell-based, CHO-K1
Conditions: not given

Going from `O=C(O)CCc1cc2cc(-c3cccc(OC4CCC4)c3)ccc2o1` to `O=C(O)CCc1cc2cc(-c3cccc(OC(F)(F)F)c3)ccc2o1`, the EC50 rises from 0.153 µM to 0.544 µM (3.6-fold). The first is the more potent here.

`O=C(O)CCCOc1ccc(-c2cccc(Oc3ccccc3)c2)cc1` and `Cc1cc(-c2cc(OC(F)(F)F)ccc2Cl)ccc1OCCCC(=O)O` are within 1.5-fold of each other in EC50: 0.17 µM for the first, 0.185 µM for the second.

Biological target: T2, Free fatty acid receptor 4 (Homo sapiens) (UniProt Q5NUL3)
T2 sequence (whole entry): T1 sequence (Q5NUL3 whole entry)
Experiment: Agonist activity at human GPR120 expressed in CHOK1 cells measured after 60 mins by IP1-HTRF assay relative to basal level
Assay type: functional, cell-based
Parameters: concentration or dose not given beside the values
Conditions: CHO-K1

Going from `O=C(O)CCc1cc2cc(-c3cccc(OC4CCC4)c3)ccc2o1` to `O=C(O)CCc1cc2cc(-c3cccc(OC(F)(F)F)c3)ccc2o1`, the Activity falls from 65% to 48%.

First: O=C(O)CCCOc1ccc(-c2cccc(Oc3ccccc3)c2)cc1
Second: Cc1cc(-c2cc(OC(F)(F)F)ccc2Cl)ccc1OCCCC(=O)O
The Activity of the first is lower: 46% for the first, 57% for the second.

Biological target: T3, Free fatty acid receptor 4 (Mus musculus, UniProt Q7TMA4)
T3 sequence (Q7TMA4 whole entry): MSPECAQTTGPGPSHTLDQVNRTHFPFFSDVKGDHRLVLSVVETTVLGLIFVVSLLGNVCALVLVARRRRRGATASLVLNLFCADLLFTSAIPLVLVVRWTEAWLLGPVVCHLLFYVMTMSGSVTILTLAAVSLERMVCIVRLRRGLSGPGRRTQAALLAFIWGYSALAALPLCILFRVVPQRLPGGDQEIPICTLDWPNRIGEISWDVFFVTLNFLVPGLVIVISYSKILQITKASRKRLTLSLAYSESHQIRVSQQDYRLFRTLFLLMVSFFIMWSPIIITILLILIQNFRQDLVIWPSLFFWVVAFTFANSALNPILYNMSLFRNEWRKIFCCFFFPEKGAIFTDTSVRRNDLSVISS
Experiment: Agonist activity at mouse GPR120 expressed in CHOK1 cells measured after 60 mins by IP1-HTRF assay
Assay type: functional, cell-based, CHO-K1
Conditions: not given

Going from `O=C(O)CCc1cc2cc(-c3cccc(OC4CCC4)c3)ccc2o1` to `O=C(O)CCc1cc2cc(-c3cccc(OC(F)(F)F)c3)ccc2o1`, the EC50 rises from 0.035 µM to 0.326 µM (9.3-fold). The first is the more potent here.

First: O=C(O)CCCOc1ccc(-c2cccc(Oc3ccccc3)c2)cc1
Second: Cc1cc(-c2cc(OC(F)(F)F)ccc2Cl)ccc1OCCCC(=O)O
The EC50 of the first is 2-fold lower: 0.067 µM for the first, 0.131 µM for the second. The first is the more potent here.

Biological target: T4, Free fatty acid receptor 4 (Mus musculus) (UniProt Q7TMA4)
T4 sequence (whole entry): T3 sequence (Q7TMA4 whole entry)
Experiment: Agonist activity at mouse GPR120 expressed in CHOK1 cells measured after 60 mins by IP1-HTRF assay relative to basal level
Assay type: functional, cell-based
Parameters: concentration or dose not given beside the values
Conditions: CHO-K1

Compared with `O=C(O)CCc1cc2cc(-c3cccc(OC4CCC4)c3)ccc2o1`, `O=C(O)CCc1cc2cc(-c3cccc(OC(F)(F)F)c3)ccc2o1` is lower in Activity: 66% for the first, 59% for the second.

Going from `O=C(O)CCCOc1ccc(-c2cccc(Oc3ccccc3)c2)cc1` to `Cc1cc(-c2cc(OC(F)(F)F)ccc2Cl)ccc1OCCCC(=O)O`, the Activity rises from 58% to 62%.

Biological target: T5, Free fatty acid receptor 1 (Homo sapiens, UniProt O14842)
Experiment: Agonist activity at human GPR40 measured after 60 mins by IP1-HTRF assay
Assay type: functional
Conditions: not given

T5 sequence (O14842 whole entry): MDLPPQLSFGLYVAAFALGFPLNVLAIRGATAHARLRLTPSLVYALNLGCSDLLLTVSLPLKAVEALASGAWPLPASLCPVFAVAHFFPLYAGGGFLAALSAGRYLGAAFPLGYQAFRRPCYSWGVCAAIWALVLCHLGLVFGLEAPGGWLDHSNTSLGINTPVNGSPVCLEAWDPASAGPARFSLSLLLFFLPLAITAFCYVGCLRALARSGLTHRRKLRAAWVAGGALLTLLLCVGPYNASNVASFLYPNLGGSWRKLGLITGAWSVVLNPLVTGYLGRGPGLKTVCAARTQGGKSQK

Going from `O=C(O)CCc1cc2cc(-c3cccc(OC4CCC4)c3)ccc2o1` to `O=C(O)CCc1cc2cc(-c3cccc(OC(F)(F)F)c3)ccc2o1`, the EC50 falls from 2.5 µM to 1.39 µM (1.8-fold). The second is the more potent here.

`O=C(O)CCCOc1ccc(-c2cccc(Oc3ccccc3)c2)cc1` and `Cc1cc(-c2cc(OC(F)(F)F)ccc2Cl)ccc1OCCCC(=O)O` are within 1.5-fold of each other in EC50: 6.8 µM for the first, 6.72 µM for the second.

Biological target: T5, Free fatty acid receptor 1
Experiment: Agonist activity at human GPR40 measured after 60 mins by IP1-HTRF assay relative to basal level
Assay type: functional
Parameters: concentration or dose not given beside the values
Conditions: not given

Going from `O=C(O)CCc1cc2cc(-c3cccc(OC4CCC4)c3)ccc2o1` to `O=C(O)CCc1cc2cc(-c3cccc(OC(F)(F)F)c3)ccc2o1`, the Activity rises from 40% to 43%.

First: O=C(O)CCCOc1ccc(-c2cccc(Oc3ccccc3)c2)cc1
Second: Cc1cc(-c2cc(OC(F)(F)F)ccc2Cl)ccc1OCCCC(=O)O
The Activity of the first is higher: 54% for the first, 37% for the second.
